Holding throughout (assay type): functional
In test [1] the test system is Aspergillus niger. Briefly: Antifungal activity against Aspergillus niger.
A further test deals with Aspergillus flavus. Briefly: Antifungal activity against Aspergillus flavus. Particulars: for MIC: Aspergillus flavus.
The subject of test [2] is Mycobacterium tuberculosis. Briefly: Antibacterial activity against Mycobacterium tuberculosis.
In the next test the test system is Staphylococcus aureus. Briefly: Antibacterial activity against Staphylococcus aureus.
Test [3] has as its system Candida parapsilosis. The test can be described thus: Antifungal activity against Candida parapsilosis. To be noted: Lodderomyces parapsilosis.
Test [4] can be described thus: Antifungal activity against Fonsecaea compacta.
A further test deals with Microsporum canis. Briefly: Antifungal activity against Microsporum canis.
Another test deals with Candida tropicalis. The test can be described thus: Antifungal activity against Candida tropicalis.
The test system of test [5] is Aspergillus fumigatus. The test can be described thus: Antifungal activity against Aspergillus fumigatus.
Test [6] concerns Cryptococcus neoformans. Briefly: Antifungal activity against Cryptococcus neoformans.
The subject of test [7] is Candida albicans. The test can be described thus: Antifungal activity against Candida albicans. Particulars: for MIC: Candida albicans.
The subject of a further test is Trichophyton rubrum. Briefly: Antifungal activity against Trichophyton rubrum.
A further test has as its system Sporothrix schenckii. Briefly: Antifungal activity against Sporothrix schenckii.
In test [8] the test system is Trichophyton mentagrophytes. The test can be described thus: Antifungal activity against Trichophyton mentagrophytes.
The test system of test [9] is Aspergillus fumigatus. The test can be described thus: Antifungal activity against Aspergillus fumigatus assessed as growth inhibition.
The subject of test [10] is Aspergillus niger. The test can be described thus: Antifungal activity against Aspergillus niger assessed as growth inhibition.
Test [11] deals with Aspergillus fumigatus. The test can be described thus: Ratio of compound MIC to itraconazole MIC for Aspergillus fumigatus AF980003.
In test [12] the test system is Candida albicans. The test can be described thus: Ratio of compound MIC to itraconazole MIC for Candida albicans CA980001.
Test [13] relates to Candida albicans. The test can be described thus: Antifungal activity against Candida albicans CA980001.
Test [14] deals with Aspergillus fumigatus. The test can be described thus: Antifungal activity against Aspergillus fumigatus AF980003.
For the next test, the system named is Candida. Briefly: Antifungal activity against Candida spp.
The test system of another test is Microsporum. The test can be described thus: Antifungal activity against Microsporum […].
Another test has as its system Trichophyton tonsurans. Briefly: Antifungal activity against Trichophyton tonsurans.
Another test has as its system Lasiodiplodia theobromae. The test can be described thus: Antifungal activity against Botryodiplodia theobromae.
A further test relates to Fusarium verticillioides. The test can be described thus: Antifungal activity against Fusarium moniliforme.
The test system of test [15] is Candida parapsilosis. The test can be described thus: Antifungal activity against Candida parapsilosis ATCC 22019. Particulars: Lodderomyces parapsilosis.
The subject of test [16] is Cryptococcus neoformans. The test can be described thus: Antifungal activity against Cryptococcus neoformans after 72 hrs by NCCLS broth microdilution method.
The test system of the next test is Fusarium oxysporum. Briefly: Antifungal activity against Fusarium oxysporum.
The next test concerns Trichoderma viride. Briefly: Antifungal activity against Trichoderma viride.
The subject of the next test is Macrophomina phaseolina. The test can be described thus: Antifungal activity against Macrophomina phaseolina.

Values after ≈ are worked out from the molar mass of the structure shown.

Consider `O=C(Nc1ccccc1-c1nnc(-c2ccccc2)o1)c1ccccc1`, for which the “inhibition zone (IZ)” value with Aspergillus niger [1] is on record as 15 mm; in the test on Aspergillus flavus, 11 mm.
Take `O=C(Nc1ccccc1-c1nnc(-c2ccc(O)cc2)o1)c1ccccc1`: the “inhibition zone (IZ)” value in the test with Aspergillus niger [1] came out at 15 mm; in the test on Aspergillus flavus, 11 mm.
A word on the MIC: it is the lowest concentration found to suppress growth. The low end stands for greater potency, the high end for weaker potency. In the case of `Cc1cccc(C2=NN(C(N)=S)C(c3cccnc3)C2)c1` (stereo not given), the minimal inhibitory concentration (MIC) in [2] was 6.25 µg/mL (≈ 21.1 µM); against Staphylococcus aureus, 128 µg/mL (≈ 432 µM).
Turning to `CN(CC(O)(Cn1cncn1)c1ccc(F)cc1F)C1CC1` (stereo not given), the minimal inhibitory concentration (MIC) (against Candida parapsilosis [3]; in test [4]; with Microsporum canis; with Candida tropicalis; in the test with Aspergillus fumigatus [5]; in the test on Cryptococcus neoformans [6]) was 0.125 µg/mL (≈ 0.405 µM) each time. Further, the MIC in the test on Candida albicans [7] and with Trichophyton rubrum was 0.125 µg/mL (≈ 0.405 µM) in each case.
Regarding `O=C(O)CCSC1=C(CO)C(=O)c2ccccc2C1=O`, the MIC (in the test on Microsporum canis; against Aspergillus fumigatus [5]; in the test on Sporothrix schenckii; in the test with Cryptococcus neoformans [6]; with Candida albicans [7]; in [8]) was 0.78 µg/mL (≈ 2.67 µM) in each case.
For `N=C1SC(c2ccc(Cl)cc2)c2cnn(C(=O)c3ccc(Cl)cc3)c2C1=N` (stereo not given), the “growth inhibition (GI)” value in the test with Aspergillus fumigatus [9] is 61%; in the test on Aspergillus niger [10], 60%.
With `Clc1ccccc1Cn1cc(Cn2ccnc2)c2cc(Br)ccc21`, the Ratio in the test on Aspergillus fumigatus [11] and in the test on Candida albicans [12] was 16 each time. Also, the MIC against Candida albicans [13] and with Aspergillus fumigatus [14] was 8 µg/mL (≈ 20 µM) each time.
`CCN(CC)C(=O)C1C2(C(=O)N(c3ccccc3)N=C2C)C1(c1ccccc1)c1ccccc1` (stereo not given) had an MIC against Candida of 25 µg/mL (≈ 55.4 µM).
With `NC(=O)c1ccc(COc2ccc(N3CCN(CC(O)(Cn4cncn4)c4ccccc4)CC3)cc2)cc1` (stereo not given), the minimal inhibitory concentration (MIC) with Candida parapsilosis [3], against Microsporum, in the test on Candida tropicalis, in the test on Aspergillus fumigatus [5], in the test on Cryptococcus neoformans [6] and in the test on Trichophyton rubrum was 0.0625 µg/mL (≈ 0.122 µM) each time.
Take `COC(=O)C1C2(C(=O)N(c3ccccc3)N=C2C)C1(c1ccccc1)c1ccccc1` (stereo not given): in the test on Candida, it took 25 µg/mL (≈ 60.9 µM) to inhibit growth (MIC).
Take `Clc1ccc(COC(Cn2ccnc2)c2ccc(Cl)cc2Cl)c(Cl)c1` (stereo not given) [MICONAZOLE]: the minimum inhibitory concentration (MIC) against Candida came out at 2 µg/mL (≈ 4.81 µM); against Trichophyton rubrum, 0.4 µg/mL (≈ 0.961 µM); in the test with Trichophyton tonsurans it was 0.2 µg/mL (≈ 0.481 µM).
Regarding `OCC1CC(c2ccc(-c3ccccc3)cc2)N(c2ccc(F)cc2)O1` (stereo not given), the MIC with Lasiodiplodia theobromae, against Fusarium verticillioides and with Aspergillus flavus was 2.5 µg/mL (≈ 7.16 µM) in each case.
With `CCC(C)n1ncn(-c2ccc(N3CCN(c4ccc(OCC5COC(Cn6cncn6)(c6ccc(Cl)cc6Cl)O5)cc4)CC3)cc2)c1=O` (stereo not given) [ITRACONAZOLE], the minimum inhibitory concentration (MIC) with Candida parapsilosis [3] amounted to 0.0625 µg/mL (≈ 0.0886 µM); with Candida it was 2 µg/mL (≈ 2.83 µM); in the test with Microsporum, 0.0625 µg/mL (≈ 0.0886 µM); with Candida tropicalis it was 0.0625 µg/mL (≈ 0.0886 µM); in the test on Aspergillus fumigatus [5], 0.0625 µg/mL (≈ 0.0886 µM); with Cryptococcus neoformans [6], 0.0625 µg/mL (≈ 0.0886 µM). In the test with Trichophyton rubrum, this compound registered an MIC of 0.0625 µg/mL (≈ 0.0886 µM).
For `COc1ccc(N2OC(c3ccccc3)CC2c2ccc(-c3ccccc3)cc2)cc1` (stereo not given), the MIC against Lasiodiplodia theobromae, with Fusarium verticillioides and with Aspergillus flavus was 2.5 µg/mL (≈ 6.13 µM) in each case.
In the case of `C[C@H](CCCN1C=NN(CC(O)(Cn2cncn2)c2ccc(F)cc2F)C1)[C@H]1CC[C@H]2[C@@H]3CC[C@@H]4CCCC[C@]4(C)[C@H]3CC[C@]12C` (stereo not given in full), the minimal inhibitory concentration (MIC) in the test on Candida parapsilosis [15], against Sporothrix schenckii and against Candida albicans [7] was 2.18 µg/mL (≈ 3.42 µM) throughout.
Usually MIC50 stands for an inhibitory concentration at the 50% level, which refers to growth in some studies and to a panel of isolates in others. Read a low MIC50 as greater potency. In the case of `CN(C/C=C/C#CC(C)(C)C)Cc1cccc2ccccc12` [TERBINAFINE], the MIC50 against Cryptococcus neoformans [16] is 0.25 µg/mL (≈ 0.858 µM).
`CC1=NN(c2ccccc2)C(=O)C12C(C)(C(=O)OC(C)C)C2(c1ccccc1)c1ccccc1` (stereo not given) displayed an MIC in the test on Candida of 25 µg/mL (≈ 55.2 µM).
Regarding `O=C1C(CO)=C(Sc2ccccc2)C(=O)c2ccccc21`, the MIC (in the test with Microsporum canis; in the test with Aspergillus fumigatus [5]; in the test on Sporothrix schenckii; against Cryptococcus neoformans [6]; against Candida albicans [7]; in test [8]) was 0.78 µg/mL (≈ 2.63 µM) in each case.
Turning to `CCCCCCCCCCCCCCCc1nnc(CCCCCCC/C=C/CC(O)CCCCCC)o1` (stereo not given), the “inhibition zone (IZ)” value in the test on Aspergillus niger [1], with Fusarium oxysporum, in the test with Trichoderma viride and with Candida albicans [7] was 15 mm each time.
`Clc1ccc(CN(Cc2ccc(-c3ccccc3)cc2)n2ccnc2)c(Cl)c1` yielded an MIC against Trichophyton rubrum of 0.8 µg/mL (≈ 1.96 µM).
In the test with Cryptococcus neoformans [6], `OC(Cn1cncn1)(Cn1cncn1)c1ccc(F)cc1F` [FLUCONAZOLE] had a minimal inhibitory concentration (MIC) of 0.53 µg/mL (≈ 1.73 µM).
As for `CCC(c1cccc2ccccc12)N(C)C/C=C/C#CC(C)(C)C` (stereo not given), the MIC50 with Cryptococcus neoformans [16] amounted to 0.5 µg/mL (≈ 1.56 µM).
Consider `C[C@@H]1[C@H](O)[C@@H](C)/C=C/C=C/C=C/C=C/C=C/C=C/C=C/[C@H](O[C@@H]2O[C@H](C)[C@@H](O)[C@H](N)[C@@H]2O)C[C@@H]2O[C@](O)(C[C@@H](O)C[C@@H](O)[C@H](O)CC[C@@H](O)C[C@@H](O)CC(=O)O[C@H]1C)C[C@H](O)[C@H]2C(=O)O` [AMPHOTERICIN B], for which inhibition of growth in the test with Cryptococcus neoformans [6] (MIC) required 0.13 µg/mL (≈ 0.141 µM).
On to `N#Cc1c(Cl)c(Cl)c(Cl)c(C#N)c1Cl` [CHLOROTHALONIL], for which the MIC against Macrophomina phaseolina, in the test on Aspergillus niger [1] (Aspergillus niger) and against Fusarium oxysporum (Fusarium oxysporum) was 52 µg/mL (≈ 196 µM) each time.
As for `C[C@H](CCCN1C=NN(CC(O)(Cn2cncn2)c2ccc(F)cc2F)C1)[C@H]1CC[C@H]2[C@@H]3[C@H](O)C[C@@H]4CCCC[C@]4(C)[C@H]3CC[C@]12C` (stereo not given in full), the minimal inhibitory concentration (MIC) in the test with Candida parapsilosis [15], in the test with Sporothrix schenckii and in the test on Candida albicans [7] was 2.18 µg/mL (≈ 3.34 µM) in each case.

The record behind these values is ChEMBL document CHEMBL2169787, “The biology and chemistry of antifungal agents: a review” (2012).
